Columns and labels:
[1] = biological target: D(1A) dopamine receptor (Rattus norvegicus, UniProt P18901)
Description: Dopamine receptor D1 affinity was tested in vitro against corpus striatum from rat brain membranes

[2] = tested on: Rattus norvegicus; test: Stereotyped behavior was tested in rats at (ip) administration of 3 mg/kg (N=6).scores were compared as the percent of that obtained with apomorphine; assay type: functional
[3] = biological target: D(2) dopamine receptor (Rattus norvegicus, UniProt P61169)
Sequence of D(2) dopamine receptor (P61169 whole entry): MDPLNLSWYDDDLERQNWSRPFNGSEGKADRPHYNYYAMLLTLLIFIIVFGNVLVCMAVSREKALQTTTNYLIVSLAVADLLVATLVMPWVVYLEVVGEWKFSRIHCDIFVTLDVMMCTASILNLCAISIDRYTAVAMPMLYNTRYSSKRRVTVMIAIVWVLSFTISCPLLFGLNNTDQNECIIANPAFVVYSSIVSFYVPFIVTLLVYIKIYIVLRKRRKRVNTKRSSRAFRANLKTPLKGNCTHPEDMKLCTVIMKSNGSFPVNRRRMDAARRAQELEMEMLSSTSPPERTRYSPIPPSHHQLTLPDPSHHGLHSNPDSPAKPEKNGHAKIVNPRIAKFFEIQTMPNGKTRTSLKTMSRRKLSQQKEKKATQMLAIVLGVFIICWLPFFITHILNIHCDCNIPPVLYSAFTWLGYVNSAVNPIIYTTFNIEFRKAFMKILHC
Description: Dopamine receptor D2 affinity was tested in vitro against corpus striatum from rat brain membranes

Sequence of D(1A) dopamine receptor (P18901 whole entry): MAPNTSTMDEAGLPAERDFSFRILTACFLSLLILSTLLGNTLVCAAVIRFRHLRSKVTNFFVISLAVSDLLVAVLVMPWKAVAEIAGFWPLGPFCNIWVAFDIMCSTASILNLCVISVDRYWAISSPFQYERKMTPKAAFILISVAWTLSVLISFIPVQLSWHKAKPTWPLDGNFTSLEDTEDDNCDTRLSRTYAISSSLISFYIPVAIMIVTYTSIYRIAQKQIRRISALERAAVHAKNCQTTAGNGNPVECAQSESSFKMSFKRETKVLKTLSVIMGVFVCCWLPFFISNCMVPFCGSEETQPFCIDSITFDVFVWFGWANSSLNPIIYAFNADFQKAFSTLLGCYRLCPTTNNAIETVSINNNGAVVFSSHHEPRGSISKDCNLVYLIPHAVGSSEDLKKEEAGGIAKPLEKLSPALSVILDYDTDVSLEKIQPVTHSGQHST

SMILES	Ki [1]	Stereotypy score [2]	Ki [3]
Oc1ccc2c(c1O)-c1cccc3c1[C@@H](C2)N(CC(F)(F)C(F)(F)F)CC3	> 50000 nM		
CCCN1CCc2cccc3c2[C@H]1Cc1ccc(O)c(O)c1-3.Cl		99	
CC(C)CN1CCc2cccc3c2[C@H]1Cc1ccc(O)c(O)c1-3.Cl	> 10000 nM	3	490 nM
Cl.Oc1ccc2c(c1O)-c1cccc3c1[C@@H](C2)N(CC(F)(F)F)CC3	> 50000 nM	2	
CN1CCc2cccc3c2[C@H]1Cc1ccc(O)c(O)c1-3.CN1CCc2cccc3c2[C@H]1Cc1ccc(O)c(O)c1-3.Cl.Cl.O [APOMORPHINE HYDROCHLORIDE]		100	
Cl.Oc1ccc2c(c1O)-c1cccc3c1[C@@H](C2)NCC3	390 nM	26	
CCN1CCc2cccc3c2[C@H]1Cc1ccc(O)c(O)c1-3.Cl	124 nM	97	
Cl.OCCN1CCc2cccc3c2[C@H]1Cc1ccc(O)c(O)c1-3	> 10000 nM	0	
Br.C=CCN1CCc2cccc3c2[C@H]1Cc1ccc(O)c(O)c1-3	615 nM	86	
Cl.Oc1ccc2c(c1O)-c1cccc3c1[C@@H](C2)N(CC1CC1)CC3	730 nM	106	0.43 nM
CC(C)N1CCc2cccc3c2[C@H]1Cc1ccc(O)c(O)c1-3.Cl	> 10000 nM	0	

From ChEMBL document CHEMBL1125067, “Synthesis and structural requirements of N-substituted norapomorphines for affinity and activity at dopamine D-1, D-2, and agonist receptor sites in rat brain” (J Med Chem, 1990)
